Measured values taken from patent US20210186950A1, “COMBINATIONS COMPRISING TROPIFEXOR AND CENICRIVIROC” (NOVARTIS AG, priority 2018, published 2021).
Entries after “also recorded” stand apart in the source; their conditions may differ. Read-outs that look alike come from different tables or passages of the source.

Tests used:
[1] = Drug-drug interaction study between TRX and CVC in healthy and healthy but overweight to obese subjects (plasma pharmacokinetics, tolerability); assay type: in vivo, human; conditions: for AUC(0-t) / Cmax: human, plasma, oral, TRX 60 μg
Description: This is a single site, randomized, parallel group, 3 arm double-blind, double-dummy study to evaluate the potential drug-drug interaction between TRX and CVC in healthy and healthy but overweight to obese subjects. Healthy and healthy but overweight to obese subjects with body mass index (BMI) up to 32, are included to give a better representation of the NASH patients that will be studied in future clinical studies. The subjects were randomized into 3 arms a) TRX monotherapy, b) CVC monotherapy, and c) TRX and CVC as a combination.
A total of 42 subjects were randomized into the 3 parallel arms receiving single daily doses of TRX, CVC, and TRX+CVC combination.
This study examined doses of 60 μg of tropifexor and 150 mg of CVC given with a standard breakfast.
Pharmacokinetics: Sample collections included time points up to 24 hours after the first (Day 1) and the last (Day 14) doses to establish the AUC0-24 h,Cmax AUC0-24 h,ss and Cmax,ss for TRX, CVC, and TRX+CVC plasma concentration-time profiles.

NASH with liver fibrosis = conditions: cited from earlier work
[2] = Phase I studies of CVC, tolerability; assay type: in vivo, human; conditions: single doses up to 900 mg; multiple daily doses up to 400 mg for 10 days
[3] = 1-month combination toxicity study with CVC and TRX; assay type: in vivo; conditions: CVC 30 mg/kg/day alone
Procedure: A 1-month combination toxicity study was performed with cenicriviroc (CVC) (30 mg/kg/day) and tropifexor (TRX) (0.03 mg/kg or 1 mg/kg/day).

[4] = test system: nonalcoholic steatohepatitis; conditions: cited from earlier work
[5] = Safety in single dose studies of TRX; assay type: in vivo, human; conditions: single dose studies up to 3000 μg
Procedure: (§1) A total of 69 subjects have received TRX at doses ranging from 10 μg to 3000 μg in single or 10 μg to 100 μg in multiple daily doses.

FXR = assay: FGF19 biomarker in single and multiple dose studies of TRX; assay type: in vivo, human; conditions: single doses 10-3000 μg or multiple daily doses 10-100 μg; 69 subjects
Procedure: as §1

[6] = Day 1, dosed alone, CVC 150 mg, with standard breakfast, read-out: area under the concentration-time curve (AUC0-24 h)
[7] = Day 1, dosed alone, CVC 150 mg, with standard breakfast, read-out: observed peak drug concentration (Cmax)
[8] = Day 14, dosed alone, CVC 150 mg daily, read-out: steady-state AUC0-24 h,ss
[9] = Day 14, dosed alone, CVC 150 mg daily, read-out: steady-state Cmax,ss
[10] = NASH adults with liver fibrosis, one year
[11] = Day 14, TRX 60 μg + CVC 150 mg daily

SMILES | accumulation in plasma over the study duration ([1]; 150 mg daily, Day 1 to Day 14) | impact of co-administration with TRX on Cmax and AUC0-24 h of CVC ([1]; CVC 150 mg + TRX 60 μg) | AUC(0-t) [1, 6] [ng·h/mL] | Cmax [1, 7] [ng/mL] | AUC(0-t) [1, 8] [ng·h/mL] | Cmax [1, 9] [ng/mL] | fibrosis (NASH with liver fibrosis; [10]) | improvement of NAS (NASH with liver fibrosis; [10]) | adverse effects (NASH with liver fibrosis; patients) | tolerability [2] | microscopic findings indicative of toxicity [3] | adverse effects on long term administration [4] | decrease of AUC0-24 h of TRX on co-administration of CVC ([1]; Day 1, TRX 60 μg + CVC 150 mg) [%] | decrease of Cmax of TRX on co-administration of CVC ([1]; Day 1, TRX 60 μg + CVC 150 mg) [%] | reduction of AUC0-24 h,ss of TRX when co-administered with CVC [1, 11] [%] | reduction of Cmax,ss of TRX when co-administered with CVC [1, 11] [%] | reduction of TRX exposure by co-administration of CVC ([1]; summary statement, TRX 60 μg + CVC 150 mg) | safety concerns [5] | FGF19, biomarker of FXR target engagement in the enterocyte (FXR)
CCCCOCCOc1ccc(-c2ccc3c(c2)/C=C(/C(=O)Nc2ccc([S@@+]([O-])Cc4cncn4CCC)cc2)CCCN3CC(C)C)cc1 [CVC, (S,E)-8-(4-(2-butoxyethoxy)phenyl)-1-(2-methylpropyl)-N-(4-(((1-propyl-1H-imidazol-5-yl)methyl)sulfinyl)phenyl)-1,2,3,4-tetrahydrobenzo[b]azocine-5-carboxamide] | accumulated in plasma | no marked impact | 4640 | 450 | 10800 | 778 | reduction of fibrosis | no significant impact | can induce fatigue or diarrhea in a small part of the patients | generally well-tolerated | no microscopic findings indicative of toxicity |  |  |  |  |  |  |  | 
CC[C@H]1[C@@H](O)[C@@H]2[C@H](CC[C@]3(C)[C@@H]([C@H](C)CCC(=O)O)CC[C@@H]23)[C@@]2(C)CC[C@@H](O)C[C@@H]12 [OCA, obeticholic acid] |  |  |  |  |  |  |  |  |  |  |  | pruritus; also recorded: increased LDL cholesterol |  |  |  |  |  |  | 
O=C(O)c1cc(F)c2nc(N3[C@@H]4CC[C@H]3C[C@@H](OCc3c(-c5ccccc5OC(F)(F)F)noc3C3CC3)C4)sc2c1 [TRX, 2-[(1R,3r,5S)-3-({5-cyclopropyl-3-[2-(trifluoromethoxy)phenyl]-1,2-oxazol-4-yl}methoxy)-8-azabicyclo [3.2.1]octan-8-yl]-4-fluoro-1,3-benzothiazole-6-carboxylic acid] |  |  | 17.9 | 1.46 | 25.2 | 1.77 |  |  |  |  |  |  | 32 | 33 | 35 | 35 | 32-33% | No safety concerns | Dose-dependent increases
